In US5342612A, “Compositions for the treatment of mammalian diseases” (priority 1991, dated 1994):
Where two headings read alike, the source gives them in different places.

Tests used:
Format in all cases: cell-based, murine
[1] = Toxicity of formulations on mammalian cell lines (cell viability, Coulter); settings: for viability at 72 h: read-out: Relative Toxicity at 72 Hours
Experimental: (§1) Cell Lines: A20: B-cell tumor cell line 9C127: T-cell hybridoma cell line LB/62287: B-cell lymphoma cell line P388.D1: Macrophage tumor cell line
(§2) Cell lines (1×10^5 /well; >85% viability) are cultured in 24 well flat bottom plates in RPMI® medium (Gibco Laboratories, Grand Island, N.Y.) supplemented with 10% fetal calf serum, streptomycin (100 μg/mL) and penicillin (100 U/mL). Cultures are incubated (37° C., 10% CO2) with the following concentrations of vehicles:
(§3) c) 1.0%, 0.1% or 0.01% Triacetin or IMWITOR®
(§4) After a 72 hour or 6 hour incubation period, cells are harvested and counted by the Coulter Counter (Northwell Drive, England). Cell viability is determined using a Coulter Channelyzer.
(§5) The relative toxicity of the sample formulations to estimate the relative degree of toxicity for in vivo administration is carried out in vitro with the mammalian cell lines. Various concentrations of the vehicles are incubated for either 6 or 24 hours with the different mammalian cell lines. Immediate toxicity is evaluated at 6 hours by quantitating the number of dead cells in treated wells as compared to the untreated controls. Long term toxicity effects as well as effects which may inhibit cell growth are evaluated by measuring the relative degree of proliferation after an additional 48 hours incubation with ^3 H-thymidine.

[2] = test system: A20 (B-cell tumor cell line); test: as above
Experimental: as §1, §2, §3, §4, §5

in vitro = settings: mouse, p388.d1 cells, Relative Toxicity at 6 Hours
Experimental: as §1, §2, §3, §4, §5

CCCCCCCC(=O)OCC(O)CO (stereo not shown) [IMWITOR ®, Glyceryl monocaprylate]
viability at 6 h ([1]; lb/62287 b-cell lymphoma, LB, 6 h, vehicle 0.01%, read-out: Relative Toxicity at 6 Hours): 50 to 74% | viability at 6 h ([1]; lb/62287 b-cell lymphoma, LB, 6 h, vehicle 0.1%, read-out: Relative Toxicity at 6 Hours): 25 to 49% | viability at 6 h ([1]; lb/62287 b-cell lymphoma, LB, 6 h, vehicle 1.0%, read-out: Relative Toxicity at 6 Hours): 25 to 49% | viability at 72 h ([1]; lb/62287 b-cell lymphoma, LB, vehicle 0.01%): 50 to 74% | viability at 72 h ([1]; lb/62287 b-cell lymphoma, LB, vehicle 0.1%): 0 to 24% | viability at 72 h ([1]; lb/62287 b-cell lymphoma, LB, vehicle 1.0%): 0 to 24% | viability at 6 h ([1]; mouse, a20 cells, Relative Toxicity at 6 Hours): 50 to 74% | Relative Toxicity at 6 Hours [2]: - | Relative Toxicity at 72 Hours [2]: - | viability at 6 h (in vitro): 75 to 90%
